Experiments:
RCC356 [1] = target: T1, RCC356 (Homo sapiens, UniProt Q8TCB6); assay: Screening of 80 odorants on RCC356 overexpressed in Hek293 cells, CRE-luciferase reporter (Dual-Glo); assay type: cell-based; conditions: Hek293 overexpressing RCC356; for RCC356 activation in odorant screening (luciferase activity as percent of forskolin response): odorants plated as 200 μM solutions in HBSS, two independent screenings; for hit found in both independent screenings: two independent screenings of 80 odorants
T1 construct: expressed in transfected cells; host or cells: Hek293 cells, transient transfection with lipofectamine 2000
T1 sequence (Q8TCB6 1-318): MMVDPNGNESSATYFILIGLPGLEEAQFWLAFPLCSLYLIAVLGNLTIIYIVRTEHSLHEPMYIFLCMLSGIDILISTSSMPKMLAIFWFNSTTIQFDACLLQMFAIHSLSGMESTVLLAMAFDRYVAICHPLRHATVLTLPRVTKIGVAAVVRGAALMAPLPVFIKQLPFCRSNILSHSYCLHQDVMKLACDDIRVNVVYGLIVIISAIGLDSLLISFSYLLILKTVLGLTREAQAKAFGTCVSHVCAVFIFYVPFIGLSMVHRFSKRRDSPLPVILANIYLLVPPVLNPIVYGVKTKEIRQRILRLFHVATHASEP
Description: (§1) Hek293 cells were grown in MEM supplemented with decomplemented FBS at 37° C. under 5% CO2 and 90% humidity. Two days before screening, cells were plated onto 96-well plates (PDL coated plates, Becton-Dickinson). The day after, cells were transfected with a plasmid encoding RCC356 polypeptide along with 2 plasmides encoding firefly luciferase and renilla luciferase respectively. Firefly transcription was driven by a minimum promoter including the CREB-response element (CRE), whereas renilla luciferase was driven by CMV promoter, a strong constitutive promoter. Transfection was performed using lipofectamine 2000 reagent (Invitrogen). Transfected cells were let under standard culture conditions for a further 24 hours, and then process for functional assay.
(§2) Odorants were dissolved as 1M solutions in DMSO. They were then plated onto 96-well plates as 200 μM solutions in HBSS (Cambrex). DMSO represented thereby less than 1% (v/v) of the odorant solutions. Positive controls such as forskolin were included in odorant plates. Forskolin activates production of cAMP that in turn, through binding to CREB transcription factor triggers production of firefly luciferase, the reporter gene of the system. Detected luciferase activity in each well could be thereby expressed as a percent of forskolin response, allowing standardization thereon.
(§3) Functional assay was performed using Dual-Glo luciferase assay Kit according to manufacturer instructions (Promega).

RCC356 [2] = target: T1, RCC356; assay: Concentration-response analysis of odorants on Hek293 cells overexpressing RCC356 polypeptide, CRE-luciferase reporter (Dual-Glo); assay type: cell-based; conditions: for EC50: 0.1 μM to 1 mM, CRE-luciferase, read-out: Ec50 of RCC356 activation
Description: as §1, with “To further validate hits found during screenings of 80 odorants on RCC356 overexpressing-Hek293 cells, concentration-response analyses have been performed. Hek293” for “Hek293”
as §2, with “First, tested odorants (isovaleric, valeric, propionic, hexanoic, heptanoic, caprilic and pelargonic acids) were” for “Odorants were”, “plates at different concentrations ranging from 0.1” for “plates as 200”, “μM to 1 mM” for “μM solutions”
as §3

Compound	RCC356 activation in odorant screening (luciferase activity as percent of forskolin response) (RCC356 [1])	hit found in both independent screenings (RCC356 [1])	EC50 (RCC356 [2])	efficiency of ligand on RCC356 activation (RCC356 [2]; percent of forskolin response (FIG. 3A))
CCCCC(=O)O [valeric acid]	seemed to lead to RCC356 activation	found in both screening	97 µM	
O=C(O)C1CCCCC1 [hexahydrobenzoic acid]			104 µM	
CCCCCCC(=O)O [oenanthylic acid]	seemed to lead to RCC356 activation		260 µM	
C=CCCCC(=O)O [5-hexenoic acid]			485 µM	
CCCCCCCCC(=O)O [pelargonic acid]	seemed to lead to RCC356 activation		643 µM	
CCCCCC(=O)O [caproic acid]	seemed to lead to RCC356 activation		91 µM	
CCC(=O)O [propionic acid]	seemed to lead to RCC356 activation			
CCCCCCCC(=O)O [caprilic acid, caprylic acid]	seemed to lead to RCC356 activation		329 µM	
CC(C)CC(=O)O [isovaleric acid]	seemed to lead to RCC356 activation	found in both screening	25 µM	most efficient ligand
